Experimental data as given in patent publication US7608577B2, “Peptidyl ketones as inhibitors of DPIV” (OSI Pharmaceuticals, Inc., priority 2001, dated 2009).

Columns and labels:
Assay type in all cases: biochemical
[1] = biological target: T1, Acylamino acid-releasing enzyme (AARE) (Homo sapiens, UniProt P13798); assay: Cross reacting enzymes: AARE; conditions: substrate Acetyl-Met-AMC, pH 7.2
T1 sequence (P13798 1-732): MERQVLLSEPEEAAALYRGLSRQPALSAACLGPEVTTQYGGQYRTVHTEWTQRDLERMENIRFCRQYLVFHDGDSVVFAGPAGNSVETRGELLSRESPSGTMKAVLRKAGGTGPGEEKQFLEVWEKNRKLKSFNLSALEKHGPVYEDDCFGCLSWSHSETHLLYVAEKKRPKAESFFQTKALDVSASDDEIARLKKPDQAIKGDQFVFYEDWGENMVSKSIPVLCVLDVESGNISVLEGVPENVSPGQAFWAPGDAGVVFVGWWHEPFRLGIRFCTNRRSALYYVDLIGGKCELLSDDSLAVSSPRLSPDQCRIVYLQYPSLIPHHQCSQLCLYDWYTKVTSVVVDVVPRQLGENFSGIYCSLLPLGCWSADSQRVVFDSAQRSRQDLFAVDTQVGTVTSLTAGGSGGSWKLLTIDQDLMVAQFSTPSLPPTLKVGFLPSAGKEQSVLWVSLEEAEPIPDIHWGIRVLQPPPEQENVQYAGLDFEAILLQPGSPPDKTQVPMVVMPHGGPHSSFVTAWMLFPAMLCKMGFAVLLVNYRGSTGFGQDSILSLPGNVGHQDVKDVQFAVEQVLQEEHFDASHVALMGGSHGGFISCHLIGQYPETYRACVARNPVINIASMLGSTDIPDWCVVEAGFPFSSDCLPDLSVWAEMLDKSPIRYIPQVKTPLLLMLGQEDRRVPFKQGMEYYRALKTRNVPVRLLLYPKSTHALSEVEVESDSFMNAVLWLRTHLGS
Protocol: The assay mixture was pre-incubated at 30° C. for 15 min. After pre-incubation, 50 μl Acetyl-Met-AMC solution (0.54 mM) was added. Release of the AMC was measured at 30° C. using a NOVOstar fluorescence microplate reader (BMG) and excitation/emission wavelengths of 380/460 nm.
The IC50-values were calculated from the slopes of the progress curves using Graphit 4.0.15 (Erithacus Software, Ltd., UK).

[2] = biological target: T2, dipeptidyl peptidase IV from porcine kidney (Sus scrofa, UniProt P22411); assay: Ki determination, DPIV inhibition (inhibitor released from prodrug by APN); conditions: for Ki: porcine kidney DPIV, substrate Gly-Pro-pNA, APN added to release inhibitor, HEPES pH7.6, read-out: Ki; for T1/2 (half-life, from enzyme activity versus reaction time): same assay as Ki, unstable competitive inhibitor
T2 construct: dipeptidyl peptidase IV from porcine kidney with a specific activity against glycylprolyl-4-nitroaniline of 37.5 U/mg; from tissue; host or cells: porcine kidney
T2 sequence (P22411 whole entry): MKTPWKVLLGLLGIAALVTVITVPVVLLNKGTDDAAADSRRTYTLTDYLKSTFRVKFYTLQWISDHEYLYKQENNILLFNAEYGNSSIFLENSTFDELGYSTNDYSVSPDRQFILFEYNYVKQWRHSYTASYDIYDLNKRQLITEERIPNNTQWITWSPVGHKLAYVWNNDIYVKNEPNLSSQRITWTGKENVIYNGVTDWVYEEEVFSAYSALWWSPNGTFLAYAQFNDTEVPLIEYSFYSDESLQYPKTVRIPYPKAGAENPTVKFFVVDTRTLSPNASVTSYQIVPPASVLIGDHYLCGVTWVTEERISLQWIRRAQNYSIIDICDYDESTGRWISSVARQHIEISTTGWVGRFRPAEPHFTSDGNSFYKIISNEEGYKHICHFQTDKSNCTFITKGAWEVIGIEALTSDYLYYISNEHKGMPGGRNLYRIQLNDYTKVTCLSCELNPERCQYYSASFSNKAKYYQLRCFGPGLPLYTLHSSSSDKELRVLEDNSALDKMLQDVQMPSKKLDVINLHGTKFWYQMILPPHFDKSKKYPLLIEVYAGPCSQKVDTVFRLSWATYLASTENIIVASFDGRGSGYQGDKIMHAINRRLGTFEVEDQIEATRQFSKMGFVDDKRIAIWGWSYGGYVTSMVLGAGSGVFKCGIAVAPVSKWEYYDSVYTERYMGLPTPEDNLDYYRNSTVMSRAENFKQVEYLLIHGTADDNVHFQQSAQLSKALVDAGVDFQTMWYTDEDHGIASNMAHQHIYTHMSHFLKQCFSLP
Protocol: 500 μl test compound in a concentration range of 1*10^−5 M-1*10^−11M were admixed with and 500 μl HEPES buffer (40 mM, pH7.6; ion strength=0.125) and 20 μl of diluted DPIV. Release of the inhibitor from the prodrug as well the monitoring reaction (DPIV-catalyzed hydrolysis of Gly-Pro-pNA) were started by addition of a mixture of 10 μl of APN stock solution (4.9 mg/ml, Sigma, Taufkirchen, Germany) with 250 μl of the substrate (Gly-Pro-pNA, 0.05-4 mM). Development of yellow color due to 4-nitroaniline release were monitored at λ=405 nm for up to 180 min using UV1 Spectrometer (ThermoSpectronic).
The Ki-values were calculated by fitting the first derivative of the time-progress curves using Graphit (v.4.0.13, Erithacus Software, Ltd, UK) and an equation for an unstable competitive inhibitor.
The half-life (t1/2) was calculated by plotting the enzyme activity versus reaction time.

[3] = biological target: T3, Prolidase from porcine kidney (Sus scrofa, UniProt A0A5G2QQV1); assay: Cross reacting enzymes: prolidase; conditions: substrate Ile-Pro-OH, pH 7.6
T3 sequence (A0A5G2QQV1 1-463): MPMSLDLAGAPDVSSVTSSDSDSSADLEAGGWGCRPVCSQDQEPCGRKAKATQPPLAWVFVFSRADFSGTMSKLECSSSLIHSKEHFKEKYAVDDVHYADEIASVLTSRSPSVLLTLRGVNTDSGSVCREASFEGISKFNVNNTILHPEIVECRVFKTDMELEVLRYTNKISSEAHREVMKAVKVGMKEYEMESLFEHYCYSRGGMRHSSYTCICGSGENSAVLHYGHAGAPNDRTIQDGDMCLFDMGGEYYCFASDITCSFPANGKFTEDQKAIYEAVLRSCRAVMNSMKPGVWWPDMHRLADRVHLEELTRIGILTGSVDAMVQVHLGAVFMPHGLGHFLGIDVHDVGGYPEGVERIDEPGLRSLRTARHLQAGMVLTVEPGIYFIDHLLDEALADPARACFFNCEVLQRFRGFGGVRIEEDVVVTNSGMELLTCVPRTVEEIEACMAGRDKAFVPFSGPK
Protocol: Prolidase from porcine kidney (ICN Biomedicals, Eschwege, Germany) was solved (1 mg/ml) in assay buffer (20 mM NH4(CH3COO)2, 3 mM MnCl2, pH 7.6). In order to get a fully active enzyme the solution was incubated for 60 min at room temperature.
450 μl solution with the test compounds in an concentration range of 5*10^−3 M-5*10^−7 M were admixed with 500 μl buffer solution (20 mM NH4(CH3COO)2, pH 7.6) and 250 μl Ile-Pro-OH (0.5 mM in the assay mixture). The assay mixture was pre-incubated at 30° C. for 5 min. After pre-incubation, 75 μl Prolidase (1:10 diluted in assay buffer) was added and measurement was performed at 30° C. and λ=220 nm for 20 min using a UV/Vis photometer, UV1 (Thermo Spectromc, Cambridge, UK).
The IC 50-values were calculated using Graphit 4.0.15 (Erithacus Software, Ltd., UK).

| AARE IC50 [1] | Ki [2] [µM] | T1/2 (half-life, from enzyme activity versus reaction time) [2] [min] | Prolidase IC50 [3] | IC50 [3] [µM] | SMILES |
| --- | --- | --- | --- | --- | --- |
| no inhibition | 0.00105 | 10.8 | no inhibition |  | Br.CC(=O)OCC(=O)[C@@H]1CCCN1C(=O)[C@@H](NC(=O)[C@H](C)N)C(C)C [H-Ala-Val-Pro-CH2O—CO—CH3*HBr, 2-[(Acetyloxy-methyl)carbonyl]-1-N-[(L)-Alanyl-(L)-Valinyl]-(2S)-pyrrolidine hydrobromide] |
| no inhibition | 0.000536 | 15.1 |  | 414 | Br.CC(C)[C@H](NC(=O)[C@H](C)N)C(=O)N1CCC[C@H]1C(=O)COC(=O)c1ccccc1 [H-Ala-Val-Pro-CO—CH2O—CO—Ph*HBr, 2-[(Benzoyloxy-methyl)carbonyl]-1-N-[{(L)-Alanyl}-(L)-Valinyl]-(2S)-pyrrolidine hydrobromide] |
| no inhibition | 0.0476 | 12.4 |  | 413 | Br.CC(=O)[C@@H]1CCCN1C(=O)[C@@H](NC(=O)[C@H](C)N)C(C)C [H-Ala-Val-Pro-Me*HBr, 2-Methylcarbonyl-1-N-[(L)-Alanyl-(L)-Valinyl]-(2S)-pyrrolidine hydrobromide] |
